Legend:
[1] = tested on: MRC5 human fibroblast cell line; experiment: Cell division rate / replicative lifespan of MRC5 fibroblasts; type: cell-based
Description: The cell division rate was measured using the method of Fairweather, D. S., M. Fox, and G. P. Margison, (1987), Exp Cell Res, 168(1): p. 153-9. Briefly, the replicative lifespan of MRC5 cells are measured by growing them on the surface of dishes until the reach confluencey whereupon they are split at a 1:2 ratio (i.e. diluted 1 in 2). The number of times the culture is split is equal to that of the number of divisions the cells are able to undertake which is the cultures replicative lifespan. MRC5 cells are only able to divide a finite number of times, and as they reach the end of their life the time they take to undergo cell division increases. In this instance the rate of cell division is used as a measure of age.

S. cerevisiae = experiment: Chronological lifespan of yeast, outgrowth method (Bioscreen C); type: cell-based; details: FIG. 4
Description: Lifespan was measured using the outgrowth method described by Murakami, C. and Kaeberlein, M., (2009) J. Vis. Exp, 27. Briefly, chronological lifespan of yeast refers to the profile of viability of an ageing yeast culture over time. To measure this a yeast culture is grown in liquid media until the glucose carbon source is exhausted and the cells stop dividing. At this point the proportion of cells which are alive and able to divide is measured by observing the outgrowth characteristics of a fresh inoculate of the ageing culture using a Bioscreen™ C machine (Oy Growth Curves Ab Ltd, Finland). Viabilities at various time points are compared to determine the chronological lifespan of the culture.

C. elegans = C. elegans lifespan, percentage of living worms over time; type: in vivo; details: FIG. 5
Description: FK-506 was added to C. elegans during the timed egg laying stage and lifespan was measured as described in Sutphin, G. L., and Kaeberlein, M., (2009) J. Vis. Exp, 27. Briefly this method comprises synchronising a population of worms and measuring the percentage of living worms at a range of time points, scoring live worms by their ability to respond to physical stimulus.

## C=CC[C@@H]1/C=C(\C)C[C@H](C)C[C@H](OC)[C@H]2O[C@@](O)(C(=O)C(=O)N3CCCC[C@H]3C(=O)O[C@H](/C(C)=C/[C@@H]3CC[C@@H](O)[C@H](OC)C3)[C@H](C)[C@@H](O)CC1=O)[C@H](C)C[C@@H]2OC [FK-506, fujimycin]
[1]; MRC5 cells, FIG. 6
  age dependent reduction in cell division rate: appears to reverse age dependent reduction in cell division rate
[1]; MRC5 cells, addition after 39 divisions
  division time compared to a control having no FK-506 added: reduction of the division time
[1]; higher concentrations
  toxicity to the cells: becomes toxic to the cells
S. cerevisiae; 0.1 ng/ml in the culture medium
  effect on the chronological lifespan of the cells compared to the control: no significant effect
S. cerevisiae; 1 ng/ml or more in the culture medium
  effect on the median lifespan of the yeast cells compared to the control: significant effect increasing the median lifespan
C. elegans; added during the timed egg laying stage
  lifespan of C. elegans: prolongs the lifespan of C. elegans in a dose dependent manner
C. elegans; addition of 4μ/ml
  viability of the organisms (chronological lifespan): significant increase in the viability

Source: patent US20120136046A1, “METHOD OF TREATING AGE RELATED DISORDERS” (Chronos Therapeutics Limited, priority 2009, published 2012)
